In patent US10131652B2, “Pyrimidinyloxy benzene derivatives as herbicides” (E. I. DU PONT DE NEMOURS AND COMPANY, priority 2014, dated 2018):
Where two headings read alike, the source gives them in different places.

Legend:
Assay type in all cases: in vivo
[1] = system: velvetleaf (Abutilon theophrasti); experiment: Test B pre-/postemergence plant response; details: for pest or weed control at 1000 g/ha: Abutilon theophrasti, 240 h, 1000 g ai/ha, read-out: Plant response rating, Velvetleaf
How it was run: (§1)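 Ratings reflect visual injury versus untreated controls, from 0 for no effect to 100 for complete control, assessed roughly 10 days after treatment. Formulation: non-phytotoxic solvent mix with surfactant; pre- and postemergence sprays on plants grown in loam soil and sand.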

[2] = system: morningglory (Ipomoea spp.); experiment: Test B pre-/postemergence plant response; details: for pest or weed control at 1000 g/ha: Ipomoea, 240 h, 1000 g ai/ha, read-out: Plant response rating, Morningglory
How it was run: as §1

[3] = system: large (Lg) crabgrass (Digitaria sanguinalis); experiment: Test B pre-/postemergence plant response; details: for pest or weed control at 1000 g/ha: Digitaria sanguinalis, 240 h, 1000 g ai/ha, read-out: Plant response rating, Crabgrass, Large
How it was run: as §1

[4] = system: pigweed (Amaranthus retroflexus); experiment: Test B pre-/postemergence plant response; details: for pest or weed control at 1000 g/ha: Amaranthus retroflexus, 240 h, 1000 g ai/ha, read-out: Plant response rating, Pigweed
How it was run: as §1

corn (Zea mays) = experiment: Test B pre-/postemergence plant response; details: for Corn plant response rating (crop injury, 0 = no effect, 100 = complete kill) at 1000 g/ha: Zea mays, 240 h, 1000 g ai/ha
How it was run: as §1

[5] = system: barnyardgrass (Echinochloa crus-galli); experiment: Test B pre-/postemergence plant response; details: for pest or weed control at 1000 g/ha: Echinochloa crus-galli, 240 h, 1000 g ai/ha, read-out: Plant response rating, Barnyardgrass
How it was run: as §1

[6] = system: giant foxtail (Setaria faberii); experiment: Test B pre-/postemergence plant response; details: for pest or weed control at 1000 g/ha: Setaria faberi, 240 h, 1000 g ai/ha, read-out: Plant response rating, Foxtail, Giant
How it was run: as §1

[7] = system: wheat (Triticum aestivum); experiment: Test B pre-/postemergence plant response; details: for plant injury at 1000 g/ha: Triticum aestivum, 240 h, 1000 g ai/ha, read-out: Plant response rating, Wheat
How it was run: as §1

[8] = system: barnyardgrass (Echinochloa crus-galli); experiment: Test C flooded paddy test plant response; details: Flood, 250 g ai/ha, scale of 0 to 100 where 0 is no effect and 100 is complete control, 13 to 15 days
How it was run: (§2)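 2-leaf plants; flood 3 cm, cpd into paddy water; greenhouse 13–15 d; visual score vs untreated, 0 = no effect, 100 = complete control; dash = no result.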

[9] = system: ducksalad (Heteranthera limosa); experiment: Test C flooded paddy test plant response; details: Flood, 250 g ai/ha, scale of 0 to 100 where 0 is no effect and 100 is complete control, 13 to 15 days
How it was run: as §2

[10] = system: small-flower umbrella sedge (Cyperus difformis); experiment: Test C flooded paddy test plant response; details: Flood, 250 g ai/ha, scale of 0 to 100 where 0 is no effect and 100 is complete control, 13 to 15 days
How it was run: as §2

rice (Oryza sativa) = experiment: Test C flooded paddy test plant response; details: Flood, 250 g ai/ha, scale of 0 to 100 where 0 is no effect and 100 is complete control, 13 to 15 days
How it was run: as §2

[11] = 125 g ai/ha, postemergence, 0 to 100 scale, 0 no effect, 100 complete control
[12] = Postemergence, 500 g ai/ha, 0 to 100 scale (0 no effect, 100 complete control)
[13] = Preemergence, 125 g ai/ha, 0 to 100 scale where 0 is no effect and 100 is complete control
[14] = Preemergence, 500 g ai/ha, 0 to 100 scale (0 no effect, 100 complete control)
[15] = post-emergence, Postemergence, 0 to 100 scale (0 no effect, 100 complete control)
[16] = pre-emergence, Preemergence, 0 to 100 scale (0 no effect, 100 complete control)

Cn1cc(-c2ccccc2Oc2ncc(Cl)cn2)cn1 [Compound 11]
Plant response rating, Velvetleaf [1, 11]: 10
Plant response rating, Velvetleaf [1, 12]: 20
Plant response rating, Velvetleaf [1, 13]: 10
Plant response rating, Velvetleaf [1, 14]: 10
Plant response rating, Morningglory [2, 11]: 10
Plant response rating, Morningglory [2, 12]: 20
Plant response rating, Morningglory [2, 13]: 0
Plant response rating, Crabgrass, Large [3, 11]: 10
Plant response rating, Crabgrass, Large [3, 12]: 10
Plant response rating, Crabgrass, Large [3, 13]: 0
Plant response rating, Crabgrass, Large [3, 14]: 0
Plant response rating, Pigweed [4, 11]: 10
Plant response rating, Pigweed [4, 12]: 20
Plant response rating, Pigweed [4, 13]: 0
Plant response rating, Pigweed [4, 14]: 30
Plant response rating, Corn (corn (Zea mays); [11]): 0
Plant response rating, Corn (corn (Zea mays); [12]): 0
Plant response rating, Corn (corn (Zea mays); [13]): 0
Plant response rating, Corn (corn (Zea mays); [14]): 0
Plant response rating, Barnyardgrass [5, 11]: 0
Plant response rating, Barnyardgrass [5, 12]: 10
Plant response rating, Barnyardgrass [5, 13]: 0
Plant response rating, Barnyardgrass [5, 14]: 0
Plant response rating, Foxtail, Giant [6, 11]: 0
Plant response rating, Foxtail, Giant [6, 12]: 0
Plant response rating, Foxtail, Giant [6, 13]: 0
Plant response rating, Foxtail, Giant [6, 14]: 0
Plant response rating, Wheat [7, 11]: 0
Plant response rating, Wheat [7, 12]: 0
Plant response rating, Wheat [7, 13]: 0
Plant response rating, Wheat [7, 14]: 0
Barnyardgrass plant response rating [8]: 0
Ducksalad plant response rating [9]: 0
Sedge, Umbrella plant response rating [10]: 0
Rice plant response rating (rice (Oryza sativa)): 0

Clc1cnc(Oc2ccccc2-c2cc(Br)no2)nc1 [Compound 12, 2-[2-(3-bromo-5-isoxazolyl)phenoxy]-5-chloropyrimidine]
pest or weed control at 1000 g/ha [1, 15]: 90%
pest or weed control at 1000 g/ha [1, 16]: 70%
pest or weed control at 1000 g/ha [2, 15]: 30%
pest or weed control at 1000 g/ha [2, 16]: 0%
pest or weed control at 1000 g/ha [3, 15]: 30%
pest or weed control at 1000 g/ha [3, 16]: 80%
pest or weed control at 1000 g/ha [4, 15]: 100%
pest or weed control at 1000 g/ha [4, 16]: 90%
Corn plant response rating (crop injury, 0 = no effect, 100 = complete kill) at 1000 g/ha (corn (Zea mays); [15]): 0%
Corn plant response rating (crop injury, 0 = no effect, 100 = complete kill) at 1000 g/ha (corn (Zea mays); [16]): 0%
pest or weed control at 1000 g/ha [5, 15]: 40%
pest or weed control at 1000 g/ha [5, 16]: 20%
pest or weed control at 1000 g/ha [6, 15]: 40%
pest or weed control at 1000 g/ha [6, 16]: 90%
plant injury at 1000 g/ha [7, 15]: 10%
plant injury at 1000 g/ha [7, 16]: 0%
pest or weed control at 250 g/ha ([8]; Echinochloa crus-galli, read-out: Barnyardgrass plant response rating): 10%
pest or weed control at 250 g/ha ([9]; Heteranthera limosa, read-out: Ducksalad plant response rating): 40%
pest or weed control at 250 g/ha ([10]; Cyperus difformis, read-out: Sedge, Umbrella plant response rating): 0%
plant injury at 250 g/ha (rice (Oryza sativa); Oryza sativa, read-out: Rice plant response rating): 0%

FC(F)(F)c1cnc(Oc2ccccc2-c2cncs2)nc1 [Compound 13]
Plant response rating, Velvetleaf [1, 11]: 30
Plant response rating, Velvetleaf [1, 12]: 60
Plant response rating, Velvetleaf [1, 13]: 0
Plant response rating, Velvetleaf [1, 14]: 10
Plant response rating, Morningglory [2, 11]: 0
Plant response rating, Morningglory [2, 12]: 10
Plant response rating, Morningglory [2, 13]: 0
Plant response rating, Morningglory [2, 14]: 0
Plant response rating, Crabgrass, Large [3, 11]: 0
Plant response rating, Crabgrass, Large [3, 12]: 10
Plant response rating, Crabgrass, Large [3, 13]: 0
Plant response rating, Crabgrass, Large [3, 14]: 10
Plant response rating, Pigweed [4, 11]: 0
Plant response rating, Pigweed [4, 12]: 40
Plant response rating, Pigweed [4, 13]: 0
Plant response rating, Pigweed [4, 14]: 80
Plant response rating, Corn (corn (Zea mays); [11]): 0
Plant response rating, Corn (corn (Zea mays); [12]): 10
Plant response rating, Corn (corn (Zea mays); [13]): 0
Plant response rating, Corn (corn (Zea mays); [14]): 0
Plant response rating, Barnyardgrass [5, 11]: 0
Plant response rating, Barnyardgrass [5, 12]: 0
Plant response rating, Barnyardgrass [5, 13]: 0
Plant response rating, Barnyardgrass [5, 14]: 0
Plant response rating, Foxtail, Giant [6, 11]: 0
Plant response rating, Foxtail, Giant [6, 12]: 0
Plant response rating, Foxtail, Giant [6, 13]: 0
Plant response rating, Foxtail, Giant [6, 14]: 10
Plant response rating, Wheat [7, 11]: 0
Plant response rating, Wheat [7, 12]: 0
Plant response rating, Wheat [7, 13]: 0
Plant response rating, Wheat [7, 14]: 0
Barnyardgrass plant response rating [8]: 0
Ducksalad plant response rating [9]: 40
Sedge, Umbrella plant response rating [10]: 0
Rice plant response rating (rice (Oryza sativa)): 0

FC(F)(F)c1cnc(Oc2ccccc2-c2cscn2)nc1 [Compound 14]
Plant response rating, Velvetleaf [1, 11]: 20
Plant response rating, Velvetleaf [1, 12]: 30
Plant response rating, Velvetleaf [1, 13]: 0
Plant response rating, Velvetleaf [1, 14]: 20
Plant response rating, Morningglory [2, 11]: 0
Plant response rating, Morningglory [2, 12]: 0
Plant response rating, Morningglory [2, 13]: 0
Plant response rating, Morningglory [2, 14]: 0
Plant response rating, Crabgrass, Large [3, 11]: 0
Plant response rating, Crabgrass, Large [3, 12]: 10
Plant response rating, Crabgrass, Large [3, 13]: 0
Plant response rating, Crabgrass, Large [3, 14]: 20
Plant response rating, Pigweed [4, 11]: 0
Plant response rating, Pigweed [4, 12]: 50
Plant response rating, Pigweed [4, 13]: 0
Plant response rating, Pigweed [4, 14]: 100
Plant response rating, Corn (corn (Zea mays); [11]): 0
Plant response rating, Corn (corn (Zea mays); [12]): 30
Plant response rating, Corn (corn (Zea mays); [13]): 0
Plant response rating, Corn (corn (Zea mays); [14]): 0
Plant response rating, Barnyardgrass [5, 11]: 0
Plant response rating, Barnyardgrass [5, 12]: 0
Plant response rating, Barnyardgrass [5, 13]: 0
Plant response rating, Barnyardgrass [5, 14]: 0
Plant response rating, Foxtail, Giant [6, 11]: 0
Plant response rating, Foxtail, Giant [6, 12]: 10
Plant response rating, Foxtail, Giant [6, 13]: 0
Plant response rating, Foxtail, Giant [6, 14]: 30
Plant response rating, Wheat [7, 11]: 0
Plant response rating, Wheat [7, 12]: 0
Plant response rating, Wheat [7, 13]: 0
Plant response rating, Wheat [7, 14]: 0
Barnyardgrass plant response rating [8]: 0
Ducksalad plant response rating [9]: 40
Sedge, Umbrella plant response rating [10]: 0
Rice plant response rating (rice (Oryza sativa)): 0
